# Data taken from patent US20030073740A1, “Methods for treatment of lupus erythematosus” (priority 2001, published 2003).
# Where a name gives a salt, the structure may show the parent alone.
# Columns and labels:
# [1] = tested on: U937 cells; assay: apoptosis induction of U937 cells (active caspase 3 immunofluorescence); assay type: cell-based; design: apoptosis as reflected by active caspase 3 (FIG. 8): dose or concentration left out as unconfirmed; details: for Percentage of apoptotic cells / Number of apoptotic cells: 24 hrs; for Number of apoptotic cells: active caspase 3, 500 cells scored
# Protocol: U937 cells (from ATCC Rockville, Md.) were grown in RPMI media supplemented with 5% FCS, glutamine, antibiotic/antimycotic and sodium pyruvate. Total RNA was isolated from two U937 cultures, one treated with 5 nM TPA for 48 hours and one grown in normal media as listed above, using the Rouche High Pure RNA Isolation Kit (cat# 1 828 665) as per manufacturers protocol. cDNA was then synthesized from the total RNA using GibcoBRL SuperscriptII (Cat # 18064-022) reverse transcriptase as per manufacturers protocol. The resulting cDNA was used as a template for RT-PCR reactions using primer sets specific for PDE2 (forward: […], reverse: […]) or PDE5 (forward: […], reverse: […]). mRNA for PDE2 and 5 were both present in the untreated U937 cells. Upon treatment with TPA, the relative amounts of PDE2 mRNA increased 5 fold. Therefore, U937 cells treated with TPA and driven to differentiate into an activated macrophage like state have elevated levels of PDE2 mRNA (see FIG. 1).
# The presence of PDE2 and PDE5 protein within U937 cells was confirmed by indirect immunofluorescence (IIF). U937 cells were cultured as above. Two U937 cultures, one grown in the presence of 5 nM TPA for 48 hours and one grown in normal media were processed. All cultures were collected by centrifugation (Shandon Cytospin, 2 minutes @ 600 rpm) onto poly-L lysine-coated slides and immediately fixed in fresh 3% paraformaldehyde buffered in PBS for 10 minutes. Adherent cultures were grown on coverslips and fixed as above. Cells were permeablized in 0.2% triton-100 for 2 minutes. Slides were blocked with blocking buffer (5% goat serum, 5% glycerol, 1% gelatin from cold water fish skin and 0.04% NaN3 in PBS) for 1 hour at room temperature.
# Adherent cells were dislodged by treatment with trypsin EDTA for 5 minutes at 37° C. Cells were then processed for IIF as described above, except that an antibody specific for active caspase 3 was used (as per manufacturer's protocol) instead of antibodies to PDE2 or 5 (Promega Cat. #G7481). The anti-active caspase 3 antibody was diluted 1:200 in blocking buffer and processed according to the manufacturer's protocol. The resulting slides were observed under a fluorescent microscope and a digital images were obtained.
# The level of apoptosis in U937 cells was quantified by scoring 500 consecutive cells for the presence of active caspase 3.
# The cells were harvested and processed for IIF as described above using an antibody that specifically recognizes active caspase 3. […] Therefore, the inhibition of only PDE4 or PDE5 alone (i.e. without the inhibition of PDE2) is not sufficient to induce apoptosis in U937 cells.
# [2] = tested on: TNF-α secreted by TPA-induced U937 cells; assay: TNF-α immunoassay on U937 cell culture media; assay type: cell-based
# Protocol: One function of macrophages is to modulate the activity of other inflammatory cells through various cytokine molecules.
# TNF-α levels in the cell culture media were determined by using the TNF-α Immunoassay from R&D Systems (Cat. # DTA50) according to the manufacturer's protocol.
# [3] = tested on: PDE1; assay: PDE inhibition, similar protocols: PDE1; assay type: biochemical
# [4] = tested on: rats; assay: acute toxicity study in rats; details: rat, in vivo
# [5] = molecular target: T1, PDE5 (Homo sapiens, UniProt O76074); assay: competitive binding (with cGMP) to PDE5
# T1 construct: partially purified cGMP-specific PDE isolated from HT-29 cells; endogenous in cells; host or cells: HT-29
# [6] = tested on: human patients; assay: single, escalating dose human clinical trial (safety); assay type: in vivo; details: oral, 50, 100, 200 and 400 mg BID
# [7] = tested on: rats; assay: seven-day dose-range finding study in rats; assay type: in vivo; details: seven days
# [8] = tested on: dogs; assay: acute and seven-dose toxicity in dogs (capsules); details: dog, in vivo
# Protocol: Therefore, these dogs were subsequently administered seven consecutive doses of 1000 mg/kg/day.
# [9] = tested on: rats; assay: 28-day study in rats; assay type: in vivo
# Protocol: A 28-day study in rats was also carried out at 0, 50, 500 and 2000 mg/kg/day.
# [10] = molecular target: T2, GST-cGB-PDE5 fusion protein (cGMP binding sites of human PDE5A) (Homo sapiens, UniProt O76074); assay: cGMP binding assay with GST-cGB-PDE5 fusion protein
# T2 construct: made in house; host or cells: E. coli BL21 (DE3)
# Description: RT-PCR method is used to obtain the cGB domain of PDE5 with forward and reverse primers designed from bovine PDE5A cDNA sequence (McAllister-Lucas L. M. et al, J. Biol. Chem. 268, 22863-22873, 1993) and the selection among PDE 1-10 families. 5′-3′, Inc. kits for total RNA followed by oligo (dT) column purification of mRNA are used with HT-29 cells. […] It is then cloned into pGEX-5X-3 glutathione-S-transferase (GST) fusion vector (Pharmacia Biotech )with tac promoter, and EcoR1 and XhoI cut sites. The fusion vector is then transfected into E. Coli BL21 (DE3) bacteria (Invitrogen). The transfected BL21 bacteria is grown to log phase, and then IPTG is added as an inducer. The induction is carried at 20° C. for 24 hrs. The bacteria are harvested and lysed. The soluble cell lysate is incubated with GSH conjugated Sepharose 4B (GSH-Sepharose 4B). The GST-cGB-PDE5 fusion protein can bind to the GSH-Sepharose beads, and the other proteins are washed off from beads with excessive cold PBS.
# Then, the mixture is transferred to Brandel MB-24 cell harvester with GF/B as the filter membrane followed by 2 washes with 10 mL of cold 5 mM potassium buffer(pH 6.8). The membranes are then cut out and transferred to scintillation vials followed by the addition of 1 mL of H2O and 6 mL of Ready Safe™ liquid scintillation cocktail to each vial. The vials are counted on a Beckman LS 6500 scintillation counter.
# The quenching by filter membrane or other debris are also calibrated.
# [11] = tested on: PDE4; assay: PDE inhibition, similar protocols: PDE4; assay type: biochemical
# [12] = tested on: rats; assay: long-term (91-day) safety assessment study in rats; assay type: in vivo
# Description: These changes were not associated with any gross clinical abnormality.
# [13] = tested on: dogs; assay: 91-day oral study in dogs; assay type: in vivo
# [14] = U937, TPA 5 nM, 16 hrs, then 1 uM
# [15] = 28 days, 50, 500 and 2000 mg/kg/day
compound,measurement,setting,value
"CC1=C(CC(=O)NCc2ccccc2)c2cc(F)ccc2/C1=C\c1ccncc1 [Compound 38, (Z)-5-Fluoro-2-Methyl-(4-Pyridylidene)-3-(N-Benzyl) Indenylacetamide Hydrochloride]",Percentage of apoptotic cells,[1]; [14],78%
same,Number of apoptotic cells,[1]; [14],392/500
same,Percentage of apoptotic cells,"[1]; U937, no TPA treatment, 1 uM",75%
same,Number of apoptotic cells,"[1]; U937, no TPA treatment, 1 uM",375/500
same,apoptosis as reflected by active caspase 3 (FIG. 8),[1]; U937 cells treated with compound 38,undergoing apoptosis
same,induction of apoptosis,[1]; differentiated and non-differentiated U937 cell line,causes the induction of apoptosis
same,level of TNF-α secreted (FIG. 12),[2],significantly reduced
same,IC50,[3],3 µM
same,body weight gain,"[4]; ip, 1000 mg/kg",reduced body weight gain
same,necropsy findings,"[4]; ip, 1000 mg/kg",mesenteric adhesions seen in some animals
same,body weight gains,"[4]; po, 2000 mg/kg",slightly reduced
same,competitive (with cGMP) binding to PDE5,[5],does competitively (with cGMP) bind
same,side effects,[6],no significant side effects
same,signs of toxicity,[7]; 50 mg/kg/day,no observable signs of toxicity
same,treatment-related effects,[7]; 500 mg/kg/day,increase in absolute and relative liver weights in female rats
same,treatment-related effects,[7]; 2000 mg/kg/day,"labored breathing and/or abnormal respiratory sounds, decreased weights gains and food consumption in male rats, and increased liver weights in female rats"
same,"hematology, blood chemistry, microscopic pathology","[7]; any dose level (50, 500, 2000 mg/kg/day)",No hematological or blood chemistry changes nor any microscopic pathology changes
same,signs of toxicity,[8]; 1000 mg/kg,no signs of toxicity
same,signs of drug-related effects,[8]; 1000 mg/kg/day,At no time in either dosing phase were any obvious signs of drug-related effects observed
same,macroscopic tissue changes at necropsy,[9]; 28 days,No macroscopic tissue changes
same,liver weights,"[9]; 28 days, 2000 mg/kg/day",statistically significant increase in liver weights
same,thyroid weights,"[9]; 28 days, 2000 mg/kg/day",statistically significant increases in thyroid weights
same,"body weight changes, ophthalmoscopic examinations, hematological and blood chemistry values, urinalysis",[9]; [15],unremarkable
same,clinical observations,[9]; [15],no abnormal clinical observations
same,slight liver and thyroid weight increases,"[9]; 28 days, lower doses",not statistically significant
same,histopathological evaluation of tissues,"[9]; 28 days, small number of animals at 2000 mg/kg/day, one female at 500 mg/kg/day","traces of follicular cell hypertrophy, increased numbers of mitotic figures (suggestive of possible cell proliferation) in the thyroid gland and mild centrilobular hypertrophy in the liver"
same,binding to the cGMP-binding site of PDE5,[10],does not bind
same,IC50,[11],6 µM
same,clinical biochemistry and hematology,[12]; 91 days,no changes in clinical biochemistry and hematology
same,"microscopic finding, follicular cells","[12]; 91 days, 500 mg/kg/day",follicular cell hypertrophy
same,"microscopic finding, kidneys","[12]; 91 days, 200 and 500 mg/kg/day",increase in accumulation of hyalin droplets in the kidneys
same,"microscopic finding, liver","[12]; 91 days, 200 and 500 mg/kg/day",slight hepatocellular hypertrophy
same,organ weights,"[12]; 91 days, males and females at 200 and 500 mg/kg/day",dose-related trend to increased liver and thyroid/parathyroid weights
same,toxicological effects,"[12]; oral, 91 consecutive days, 50, 200 and 500 mg/kg/day",did not produce any major toxicological effects
same,tolerability,[13]; 91 days,well tolerated
same,feces observation,"[13]; 91 days, 150 and 300 mg/kg/day",Orange discoloration of the feces
same,body weights,"[13]; 91 days, highest dose group",Slightly lowered body weights
same,liver weights,"[13]; 91 days, highest dose group",increased liver weights
same,microscopic alterations (liver),"[13]; 91 days, highest dose group",no microscopic alterations
same,route of elimination (suggested by feces colour),"[13]; 91 days, oral",most of Compound 38 was being eliminated via the feces
same,toxicological effects,"[13]; oral, 91 consecutive days, 50, 150 and 300 mg/kg/day",no toxicological effects
